# “And” between values parts separate entries of the source, which are not always exact repeats. Identical values can stand only once.
# Experiments:
# Assay in all cases: TAL and PAL enzyme kinetics
# Format in all cases: biochemical
# Conditions in all cases: PAL assay (L-Phe), pH 8.5, 30° C.
# [1] = system: Streptochaeta angustifolia SaPTAL-a variant H118F (SaPTAL-a^H118F)
# Protocol: (§1) A mixture containing 100 mM Tris-HCl (pH 8.5), 1% glycerol, and purified enzyme in a total volume of 50 μl was preincubated for 3 min at 30° C. […] The reactions were terminated by addition of 6N acetic acid (10 μl).
# (§2) The kinetic parameters of the recombinant enzymes were determined using HPLC. Reaction mixtures containing 100 mM Tris-HCl (pH 8.5), 1% glycerol, and purified enzyme (0.15 μg for PAL assay and 1 μg for TAL assay) in a 50 μl total volume were preincubated for 3 min at 30° C. […] After 10 min and 20 min incubations for PAL and TAL assay, respectively, at 30° C., the reaction was terminated by addition of 6N acetic acid (10 μl). […] The products were quantified using calibration curves generated using authentic standards. Non-linear hyperbolic regression analyses were conducted using the Excel Solver tool to calculate Km and Vmax values.
# [2] = system: Ecdeiocolea monostachya EmoPAL, wild type
# Protocol: as §1, §2
# [3] = system: Joinvillea ascendens JaPTAL, wild type, SEQ ID NO: 27
# Protocol: as §1, §2
# [4] = system: Sorghum bicolor SbPAL, wild type
# Protocol: as §1, §2
# [5] = system: Joinvillea ascendens JaPAL variant F140H (JaPAL^F140H), SEQ ID NO: 259
# Protocol: as §1, §2
# [6] = system: Joinvillea ascendens JaPTAL (SEQ ID NO: 27) variant H125F/I97S (JaPTAL^H125F_I97S)
# Protocol: as §1, §2
# [7] = system: Streptochaeta angustifolia SaPTAL-b variant H126F (SaPTAL-b^H126F)
# Protocol: as §1, §2
# [8] = system: Ecdeiocolea monostachya EmoPAL variant F134H (EmoPAL^F134H)
# Protocol: as §1, §2
# [9] = system: Joinvillea ascendens JaPAL, wild type, SEQ ID NO: 28
# Protocol: as §1, §2
# [10] = system: Joinvillea ascendens JaPTAL (SEQ ID NO: 27) variant H125F (JaPTAL^H125F)
# Protocol: as §1, §2
# [11] = system: Ecdeiocolea monostachya EmoPTAL, wild type
# Protocol: as §1, §2
# [12] = system: Streptochaeta angustifolia SaPTAL-b, wild type
# Protocol: as §1, §2
# [13] = system: Streptochaeta angustifolia SaPTAL-a, wild type
# Protocol: as §1, §2
# [14] = system: Sorghum bicolor SbPAL variant F135H (SbPAL^F135H)
# Protocol: as §1, §2
# [15] = system: Ecdeiocolea monostachya EmoPTAL variant H127F (EmoPTAL^H127F)
# Protocol: as §1, §2
compound,measurement,setting,value
"N[C@@H](Cc1ccccc1)C(=O)O [L-Phe, phenylalanine]",kcat,[1],0.20 ± 0.00 s⁻¹
same,kcat/Km,[1],33600 ± 5100 M⁻¹ s⁻¹
same,Km,[2],27.7 ± 1.9 µM
same,kcat,[2],1.23 ± 0.02 s⁻¹
same,kcat/Km,[2],44700 ± 2390 M⁻¹ s⁻¹
same,Km,[3],66 µM and 65.6 µM
same,kcat,[3],0.5 s⁻¹ and 0.45 ± 0.02 s⁻¹
same,kcat/Km,[3],6800 ± 180 M⁻¹ s⁻¹
same,Km,[4],43.9 ± 2.7 µM
same,kcat,[4],0.97 ± 0.02 s⁻¹
same,kcat/Km,[4],22050 ± 1080 M⁻¹ s⁻¹
same,Km,[5],697 ± 169 µM
same,kcat,[5],0.60 ± 0.04 s⁻¹
same,kcat/Km,[5],890 ± 180 M⁻¹ s⁻¹
same,Km,[6],9.42 ± 0.8 µM
same,kcat,[6],0.02 ± 0.00 s⁻¹
same,kcat/Km,[6],1660 ± 120 M⁻¹ s⁻¹
same,Km,[7],6.3 ± 0.5 µM
same,kcat/Km,[7],37050 ± 2120 M⁻¹ s⁻¹
same,Km,[8],1310 ± 25.6 µM
same,kcat,[8],0.42 ± 0.01 s⁻¹
same,kcat/Km,[8],320 ± 10 M⁻¹ s⁻¹
same,Km,[9],24 µM and 24.4 µM
same,kcat,[9],1.9 s⁻¹ and 1.92 ± 0.01 s⁻¹
same,kcat/Km,[9],78600 ± 0 M⁻¹ s⁻¹
same,Km,[10],6.8 ± 0.7 µM
same,kcat,[10],0.08 ± 0.00 s⁻¹
same,kcat/Km,[10],12280 ± 710 M⁻¹ s⁻¹
same,Km,[11],64.1 ± 3.1 µM
same,kcat,[11],0.48 ± 0.00 s⁻¹
same,kcat/Km,[11],7540 ± 390 M⁻¹ s⁻¹
same,Km,[12],227.4 ± 1.5 µM
same,kcat,[12],0.56 ± 0.02 s⁻¹
same,kcat/Km,[12],2460 ± 100 M⁻¹ s⁻¹
same,Km,[13],154 ± 3.7 µM
same,kcat,[13],0.39 ± 0.01 s⁻¹
same,kcat/Km,[13],2510 ± 30 M⁻¹ s⁻¹
same,Km,[14],1050 ± 58.5 µM
same,kcat,[14],0.88 ± 0.05 s⁻¹
same,kcat/Km,[14],840 ± 20 M⁻¹ s⁻¹
same,Km,[15],3.6 ± 0.5 µM
same,kcat,[15],0.12 ± 0.00 s⁻¹
same,kcat/Km,[15],32620 ± 2120 M⁻¹ s⁻¹

# Source: patent publication US20240318160A1 (Wisconsin Alumni Research Foundation, priority 2023, published 2024)
